Data set [1] relates to Cucumis sativus. Kind of data set: Herbicidal activity against Cucumis sativus Jin 4 (cucumber) assessed as inhibition of root growth after 3 days. The format is functional, organism-based. The following applies: Jin 4, 72 h.
Data set [2] concerns Digitaria sanguinalis. Kind of data set: Pre-emergence herbicidal activity against Digitaria sanguinalis (hairy crabgrass) assessed as growth inhibition at 150 ai g/ha after 20 days by green house test. The format is functional.
In data set [3] the test system is Abutilon theophrasti. Kind of data set: Post-emergence herbicidal activity against Abutilon theophrasti (velvetleaf) assessed as growth inhibition at 450 ai g/ha after 20 days by green house test. The format is functional.
In data set [4] the test system is Amaranthus retroflexus. The data set can be described thus: Pre-emergence herbicidal activity against Amaranthus retroflexus assessed as growth inhibition at 1500 ai g/ha after 20 days by green house test. The format is functional.
Data set [5] deals with Cucumis sativus. Kind of data set: Herbicidal activity against Cucumis sativus Jin 4 (cucumber) assessed as inhibition of stem growth after 3 days. The format is functional, organism-based. The settings on record: Jin 4, 72 h.
The test system of data set [6] is Amaranthus retroflexus. The data set can be described thus: Post-emergence herbicidal activity against Amaranthus retroflexus assessed as growth inhibition at 450 ai g/ha after 20 days by green house test. The format is functional.
Data set [7] deals with Abutilon theophrasti. The data set can be described thus: Pre-emergence herbicidal activity against Abutilon theophrasti (velvetleaf) assessed as growth inhibition at 150 ai g/ha after 20 days by green house test. The format is functional.
For data set [8], the target named is T1, Pyruvate dehydrogenase complex (Pisum sativum, UniProt P52902+P52904).
T1 sequence (P52902 whole entry): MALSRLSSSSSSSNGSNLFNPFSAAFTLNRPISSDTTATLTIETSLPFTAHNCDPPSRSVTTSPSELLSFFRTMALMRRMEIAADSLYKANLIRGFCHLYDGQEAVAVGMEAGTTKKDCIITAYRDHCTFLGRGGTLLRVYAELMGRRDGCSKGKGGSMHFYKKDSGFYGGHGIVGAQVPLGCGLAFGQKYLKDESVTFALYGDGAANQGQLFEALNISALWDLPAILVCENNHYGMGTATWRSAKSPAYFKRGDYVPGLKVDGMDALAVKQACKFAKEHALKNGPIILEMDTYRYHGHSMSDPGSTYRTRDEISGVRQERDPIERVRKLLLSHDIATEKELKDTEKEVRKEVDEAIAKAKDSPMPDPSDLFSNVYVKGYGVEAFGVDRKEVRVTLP
T1 sequence (P52904 whole entry): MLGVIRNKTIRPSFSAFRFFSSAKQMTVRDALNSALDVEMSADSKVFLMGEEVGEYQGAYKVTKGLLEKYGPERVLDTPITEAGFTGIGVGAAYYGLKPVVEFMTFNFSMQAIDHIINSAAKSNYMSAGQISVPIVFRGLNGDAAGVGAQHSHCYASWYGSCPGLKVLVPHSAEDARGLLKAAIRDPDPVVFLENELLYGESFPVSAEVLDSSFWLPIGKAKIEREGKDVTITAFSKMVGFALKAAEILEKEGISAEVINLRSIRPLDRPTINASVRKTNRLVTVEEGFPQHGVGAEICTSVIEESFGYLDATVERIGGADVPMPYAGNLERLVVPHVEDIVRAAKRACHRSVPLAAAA
Kind of data set: Inhibition of PDHc in Pisum sativum Zhongwan-2 (pea) shoot mitochondria assessed as decrease in rate of NADH formation using sodium pyruvate as substrate preincubated for 25 min before substrate addition measured after 1 min by spectrophotometric assay. The format is protein-complex assay, Lathyrus oleraceus.

Data set [9] deals with Medicago sativa. Kind of data set: Pre-emergence herbicidal activity against Medicago sativa (alfalfa) assessed as growth inhibition at 1500 ai g/ha after 20 days by green house test. It counts as functional.
Data set [10] relates to Digitaria sanguinalis. Kind of data set: Pre-emergence herbicidal activity against Digitaria sanguinalis (hairy crabgrass) assessed as growth inhibition at 450 ai g/ha after 20 days by green house test. The format is functional.
The next data set concerns Amaranthus spinosus. The data set can be described thus: Post-emergence herbicidal activity against Amaranthus spinosus assessed as growth inhibition at 150 ai g/ha after 20 days by green house test. It counts as functional.
The subject of another data set is Setaria viridis. Kind of data set: Post-emergence herbicidal activity against Setaria viridis (green foxtail) assessed as growth inhibition at 150 ai g/ha after 20 days by green house test. It counts as functional.
Data set [11] deals with Medicago sativa. Kind of data set: Post-emergence herbicidal activity against Medicago sativa (alfalfa) assessed as growth inhibition at 1500 ai g/ha after 20 days by green house test. It counts as functional.
The test system of another data set is Pisum sativum. The data set can be described thus: Post-emergence herbicidal activity against Pisum sativum Zhongwan-2 (pea) assessed as growth inhibition at 450 ai g/ha after 20 days by green house test. The following applies: Lathyrus oleraceus.
Data set [12] relates to Cardamine hirsuta. The data set can be described thus: Post-emergence herbicidal activity against Cardamine hirsuta assessed as growth inhibition at 150 ai g/ha after 20 days by green house test. The format is functional.
In data set [13] the test system is Oryza sativa. The data set can be described thus: Inhibition of PDHc in Oryza sativa (rice) shoot mitochondria assessed as decrease in rate of NADH formation using sodium pyruvate as substrate at 1000 microg/g preincubated for 25 min before substrate addition measured after 1 min by spectrophotometric assay.
The test system of data set [14] is Oryza sativa. Kind of data set: Inhibition of PDHc in Oryza sativa (rice) shoot mitochondria assessed as decrease in rate of NADH formation using sodium pyruvate as substrate at 100 microg/g preincubated for 25 min before substrate addition measured after 1 min by spectrophotometric assay.
Data set [15] concerns Xanthium strumarium. The data set can be described thus: Post-emergence herbicidal activity against Xanthium strumarium (cocklebur) assessed as growth inhibition at 18.75 ai g/ha after 20 days by green house test. The format is functional.
The subject of data set [16] is Eclipta prostrata. The data set can be described thus: Post-emergence herbicidal activity against Eclipta prostrata assessed as growth inhibition at 225 ai g/ha after 20 days by green house test. The format is functional.
For data set [17], the system named is Xanthium strumarium. The data set can be described thus: Post-emergence herbicidal activity against Xanthium strumarium (cocklebur) assessed as growth inhibition at 150 ai g/ha after 20 days by green house test. The format is functional.
The subject of data set [18] is Cardamine hirsuta. The data set can be described thus: Post-emergence herbicidal activity against Cardamine hirsuta assessed as growth inhibition at 300 ai g/ha after 20 days by green house test. The format is functional.
Data set [19] has as its system Eclipta prostrata. Kind of data set: Post-emergence herbicidal activity against Eclipta prostrata assessed as growth inhibition at 300 ai g/ha after 20 days by green house test. The format is functional.
Data set [20] has as its system Brassica rapa subsp. oleifera. Kind of data set: Post-emergence herbicidal activity against Brassica rapa subsp. oleifera Si Yue Man assessed as growth inhibition at 300 ai g/ha after 20 days by green house test. It counts as functional.
The test system of data set [21] is Brassica rapa subsp. oleifera. Kind of data set: Post-emergence herbicidal activity against Brassica rapa subsp. oleifera Si Yue Man assessed as growth inhibition at 75 ai g/ha after 20 days by green house test. It counts as functional.
Data set [22] has as its system Oryza sativa. Kind of data set: Inhibition of PDHc in Oryza sativa (rice) shoot mitochondria assessed as decrease in rate of NADH formation using sodium pyruvate as substrate at 0.1 microg/g preincubated for 25 min before substrate addition measured after 1 min by spectrophotometric assay.
The next data set relates to Echinochloa crus-galli. Kind of data set: Post-emergence herbicidal activity against Echinochloa crus-galli (barnyard grass) assessed as growth inhibition at 150 ai g/ha after 20 days by green house test. It counts as functional.
A short description of data set [23]: Toxicity against Triticum aestivum Yang Mai 1 (wheat) assessed as growth inhibition at 300 ai g/ha post-emergent application measured after 20 days by green house crop selectivity test. It counts as organism-based. The following applies: Yang Mai 1, triticum aestivum, in vivo, read-out: GI.
The test system of data set [24] is Digitaria sanguinalis. The data set can be described thus: Post-emergence herbicidal activity against Digitaria sanguinalis (hairy crabgrass) assessed as growth inhibition at 18.75 ai g/ha after 20 days by green house test. It counts as functional.
The subject of another data set is Portulaca oleracea. The data set can be described thus: Post-emergence herbicidal activity against Portulaca oleracea assessed as growth inhibition at 75 ai g/ha after 20 days by green house test. The format is functional.
Data set [25] relates to Medicago sativa. The data set can be described thus: Post-emergence herbicidal activity against Medicago sativa (alfalfa) assessed as growth inhibition at 75 ai g/ha after 20 days by green house test. The format is functional.

Here are results for three compounds from ChEMBL document CHEMBL3045592, “Studies of O,O-dimethyl α-(2,4-dichlorophenoxyacetoxy)ethylphosphonate (HW02) as a new herbicide. 1. Synthesis and herbicidal activity of HW02 and analogues as novel inhibitors of pyruvate dehydrogenase complex” (J Agric Food Chem, 2011).

One may read the IC50 as the concentration that inhibits the measured activity by half.

Take `O=C(O)COc1ccc(Cl)cc1Cl` [2,4-DICHLOROPHENOXYACETIC ACID]: the IC50 was 0.228 µM in the data set on Cucumis sativus [1], 10.1 µM in the data set with Cucumis sativus [5] and greater than 4530 µM in data set [8]. Besides, the “growth inhibition (GI)” value with Digitaria sanguinalis [2] stood at 10%; with Abutilon theophrasti [3], 100%; in the data set with Amaranthus retroflexus [4], 90%; with Amaranthus retroflexus [6], 100%; with Abutilon theophrasti [7], 0%; in the data set with Medicago sativa [9] it was 90%. Besides, the “growth inhibition (GI)” value was 65% in the data set with Digitaria sanguinalis [10], 92.5% in the data set on Amaranthus spinosus, 0% in the data set with Setaria viridis and 90% with Medicago sativa [11].

Turning to `COP(=O)(COC(=O)COc1cccc(C(F)(F)F)c1)OC`, the “growth inhibition (GI)” value in the data set with Digitaria sanguinalis [2] was determined as 0%; in the data set with Abutilon theophrasti [3], 87.5%; in the data set with Amaranthus retroflexus [4] it was 50%; with Amaranthus retroflexus [6], 57.5%; with Abutilon theophrasti [7] it was 0%; in the data set with Medicago sativa [9], 75%. Moreover, the “growth inhibition (GI)” value is 35% with Digitaria sanguinalis [10]; 0% in the data set with Amaranthus spinosus; 10% in the data set with Pisum sativum; 0% in the data set with Setaria viridis; 90% in the data set with Medicago sativa [11]. In addition, the half-inhibitory concentration (IC50) in data set [8] came to 442 µM.

Take `COP(=O)(OC)C(C)OC(=O)COc1ccc(Cl)cc1Cl` (stereo not given) [CLACYFOS]: the IC50 amounted to 0.0025 µM in the data set on Cucumis sativus [1], 7.56 µM with Cucumis sativus [5] and 18.2 µM in [8]. Further, the “growth inhibition (GI)” value turned out to be 0% in the data set with Digitaria sanguinalis [2]; 100% in the data set with Abutilon theophrasti [3]; 90% with Amaranthus retroflexus [4]; 92.5% in the data set on Cardamine hirsuta [12]; 100% in the data set on Amaranthus retroflexus [6]; 0% in the data set with Abutilon theophrasti [7]. For the same compound, the “growth inhibition (GI)” value in the data set on Xanthium strumarium [15] was 50%; with Eclipta prostrata [16], 96%; with Xanthium strumarium [17] it was 90%; in the data set with Cardamine hirsuta [18], 100%; in the data set with Eclipta prostrata [19], 100%; in data set [20], 100%. Further, the “growth inhibition (GI)” value was 90% with Medicago sativa [9]; 92.5% in [21]; 45% in the data set on Digitaria sanguinalis [10]; 100% in the data set with Amaranthus spinosus; 0% in the data set with Echinochloa crus-galli; 97.5% in the data set with Pisum sativum. The “growth inhibition (GI)” value in the data set on Setaria viridis came to 0%; in the data set with Medicago sativa [11], 90%; in the data set on Digitaria sanguinalis [24], 0%; with Portulaca oleracea, 75%; with Medicago sativa [25] it was 84%. For the same compound, the inhibition in the data set on Oryza sativa [13] was determined as 55.1%; in the data set on Oryza sativa [14], 21.3%; in the data set with Oryza sativa [22] it was 3.4%. The inhibition at 480 h in [23] worked out at 0%.
